Measurements from paper PMC11050087, “Polyphenols from Maackia amurensis Heartwood Protect Neuronal Cells from Oxidative Stress and Prevent Herpetic Infection” (International Journal of Molecular Sciences, 2024).
Several values for one entry are separate records, joined by “and”; a condition that tells them apart may be missing. Equal entries are not always repeated.

Experiments:
[1] = test system: HSV-1; test: Virucidal activity, CPE inhibition assay (HSV-1 pretreated with compounds); assay type: cell-based, HSV-1 strain L2
Procedure: The antiviral activity of polyphenols from M. amurensis against HSV-1 was assessed using the cytopathic effect inhibition (CPE) assay. To study the inhibitory effect of polyphenolic compounds directly on the HSV-1 virus (direct virucidal activity), the monolayer of Vero cells grown on 96-well plates (1 × 10^4 cells/well) was infected with the virus (100 TCD50/mL), pretreated with different concentrations of polyphenolic compounds.
(§1) The HSV-1 strain L2 obtained from N.F. Gamaleya Federal Research Centre for Epidemiology and Microbiology (Moscow, Russia) was grown in Vero cells as previously described.
(§2) We determined the direct inhibitory effect of polyphenolic compounds from M. amurensis heartwood on HSV-1 (virucidal effect). We mixed the virus at an infectious dose (100 TCID50/mL) with polyphenolic compounds (from 0.1 to 100 µg/mL) at a ratio of 1:1 (v/v) and incubated for an hour at 37 °C. Then, we infected the monolayer of Vero cells grown on 96-well plates (1 × 10^4 cells/well) with HSV-1 pretreated with the studied compounds. After 1 h adsorption at 37 °C, the cells were washed with phosphate-buffered saline (PBS) and overlaid by the maintenance medium with 1% FBS. The plates were incubated for 72 h at 37 °C in a CO2-incubator. The cytopathic effect (CPE) inhibition assay and real-time reverse transcription-PCR (RT-PCR) assay were used to evaluate virucidal effect of the tested compounds.
We previously described this method in detail in [22]. We performed the MTT assay to evaluate the antiviral activity of polyphenolic compounds. The viral inhibition rate (IR, %) was calculated according to Equation (1):(1) IR, %=Atv−Acv/Acd−Acv×100, where Atv is the absorbance of cells infected with HSV-1 pretreated with the studied compounds,
We calculated the selectivity index (SI) as the ratio of CC50 to IC50. Experiments were repeated three times.

[2] = test system: 6-OHDA-treated Neuro-2a cells; test: ROS analysis in 6-OHDA-treated cells (H2DCF-DA); assay type: cell-based, murine; settings: compound 1 µM; 6-OHDA 120 µM
Procedure: We studied the effect of polyphenolic compounds set on ROS levels in 6-OHDA-treated Neuro-2a cells (Figure 5a–d).
Figure 5 The effect of polyphenolic compounds isolated from M. amurensis heartwood on ROS levels in Neuro-2a cells treated with 6-OHDA (120 μM) (a–d). Polyphenolic compounds isolated from M. amurensis heartwood were used at concentrations 10, 1, 0.1 μM. The data are presented as means ± SEM of three independent replicates.
After 24 h of adhesion, Neuro-2a cells (5 × 10^4 cells/mL) were incubated with polyphenolic compounds at concentrations of 0.1, 1, and 10 µM for 1 h. Then, 120 µM of 6-OHDA or 1 mM of PQ were added to each well, and cells were incubated for 1 h. To study the ROS formation, 20 µL of 2,7-dichlorodihydrofluorescein diacetate solution (H2DCF-DA, Sigma-Aldrich, St. Louis, MO, USA) were added to each well, so that the final concentration was 10 µM. Then, the microplate was incubated for 30 min at 37 °C.

[3] = test system: HSV-1; test: Virucidal activity, RT-PCR assay (HSV-1 pretreated with compounds); assay type: cell-based, HSV-1 strain L2; settings: for Ct: 72 h; for −ΔCt: vs virus control
Procedure: Vero cells grown on 96-well plates were infected with the virus (100 TCID50/mL), pretreated with polyphenolic compounds at concentrations 0.1, 1 and 10 μg/mL. After 72 h of cell incubation, viral DNA was extracted from the supernatants, and the relative level of HSV-1 DNA was determined using RT-PCR. The effect of polyphenols on the relative level of viral DNA was assessed using the 2^−∆Ct method and reported as fold reduction compared to virus control.
as §1, §2
We performed the RT-PCR assay as we previously described in detail in [22]. Briefly, HSV-1 DNA was extracted after incubation from cell supernatants by using the DNA-sorb-AM (K1-12-100-CE) nucleic acid extraction kit (AmpliSens®, Moscow, Russia) according to the manufacturer′s instructions. We treated the supernatants with a lysis solution that contained guanidine chloride (chaotropic agent) in the presence of sorbent (silica particles). As the elution solution was added, the DNA was […] silica particles and separated from the sorbent particles by centrifugation.
We detected the DNA of HSV-1 in the obtained samples using the AmpliSens® HSV I, II-FRT-100F PCR kit (AmpliSens®, Moscow, Russia) on a real-time PCR instrument Rotor-Gene Q (Qiagen, Hilden, Nordrhein-Westfalen, Germany) according to the manufacturer′s instructions. The PCR reaction conditions were the following: initial denaturation at 95 °C for 15 min; then 5 cycles at 95 °C for 5 s, at 60 °C for 20 s, at 72 °C for 15 s; then 40 cycles at 95 °C for 5 s, at 60 °C for 20 s, and at 72 °C for 15 s. A negative sample was used as the amplification control for each run. The threshold cycle number Ct, was measured as the PCR cycle, where the amount of the amplified target reached the threshold value; the Ct values ≥ 37 indicated the absence of the HSV-1 DNA in the samples. We assessed the anti-HSV-1 activity of the studied compounds by the reduction in the viral DNA levels using the 2^−ΔCt method according to Equation (2):(2) ΔCt=Ctcv−Cttv where Ct is the threshold cycle number measured as the PCR cycle, where the amount of the amplified target reached the threshold value, […]

[4] = Cytotoxicity against Vero cells (MTT assay); assay type: cell-based; settings: African green monkey
Procedure: We prepared the stock solutions of the tested compounds (10 mg/mL) in DMSO (Sigma, St. Louis, MO, USA). For the MTT assay and further studies of anti-HSV-1 activity, we diluted the stock solutions with DMEM so that the final concentration of DMSO was 0.5%.
We used MTT assay to determine the cytotoxic effect of the tested compounds against Vero cells. We performed the MTT assay as previously described.

[5] = test system: 6-OHDA-treated Neuro-2a cells; test: 6-OHDA-induced neurotoxicity model, cell viability test (MTT); assay type: cell-based, murine; settings: compounds at 10, 1, 0.1 µM; 6-OHDA 100 µM
Procedure: Neuro-2a cells were incubated with the studied polyphenolic compounds for 1 h. Then, 100 µM of 6-hydroxydopamine 6-OHDA were added. We determined the percentage of living Neuro-2a cells after treatment with 6-OHDA (Figure 4a–d).
Figure 4 The effect of polyphenolic compounds isolated from M. amurensis heartwood on the viability of Neuro-2a cells treated with 6-OHDA (100 μM) (a–d). The viability of Neuro-2a cells treated with various compounds and 6-OHDA was measured by the MTT assay. Polyphenolic compounds isolated from M. amurensis heartwood were used at concentrations 10, 1, 0.1 μM. The data are presented as means ± SEM of three independent replicates. (*) indicate p < 0.05 versus 6-OHDA-treated cells.
After 24 h of adhesion, Neuro-2a cells (5 × 10^4 cells/mL) were treated with polyphenolic compounds at concentrations of 0.1, 1 and 10 μM for 1 h. Then, 100 µM of 6-OHDA or 1 mM of PQ (Sigma-Aldrich, St. Louis, MO, USA) were added. Cells incubated without inductors or with inductors were used as positive and negative control, respectively. Cell viability was measured after 24 h using the MTT assay.

[6] = Human alphaherpesvirus 1, 72 h, read-out: 2^−ΔCt
[7] = Human alphaherpesvirus 1, 72 h, read-out: log10

With COc1ccc(-c2coc3c4c(ccc3c2=O)O[C@@H](c2cc(O)cc(O)c2)[C@H](c2ccc(O)c(O)c2)O4)cc1 [Compound 10, maackiazin] the IC50 ([1]; Human alphaherpesvirus 1, virus pretreated with compound (virucidal), CPE assay, Vero cells, 100 TCID50/mL) was 6.6 µg/mL and 12.5 µM, the SI ([1]; ratio of CC50 to IC50, virucidal scheme) was 23.7 ± 3.1 and the “reduction of ROS levels in 6-OHDA-treated Neuro-2a cells” value [2] was 20%. The Ct ([3]; 0.1 µg/mL) was 18.4 ± 2.4, the “−ΔCt” value ([3]; 0.1 µg/mL) was −0.300 ± 0.03 and the Ct ([3]; 1 µg/mL) was 20.2 ± 2.6. For the same compound, the “−ΔCt” value ([3]; 1 µg/mL) was −2.1 ± 0.3, the “anti-HSV-1 activity by RT-PCR (in words)” value ([3]; 10 µg/mL) was “significantly reduced the level of viral DNA” and the Ct ([3]; 10 µg/mL) was 28.0 ± 3.9. For the same compound, the “−ΔCt” value ([3]; 10 µg/mL) was −9.9 ± 1.1, the activity at 0.1 µg/mL [3, 6] was 81.2 ± 11% and the activity at 1 µg/mL [3, 6] was 23.3 ± 3%. The activity at 10 µg/mL [3, 6] was 0.105 ± 0.01%, the log reduction at 0.1 µg/mL [3, 7] was 0.09 ± 0.01 and the log reduction at 1 µg/mL [3, 7] was 0.6 ± 0.08. For the same compound, the log reduction at 10 µg/mL [3, 7] was 2.9 ± 0.4, the CC50 [4] was 156 µg/mL and 297 µM and the “effect on viability of 6-OHDA-treated Neuro-2a cells (in words)” value [5] was “weak effect on cell viability”.
